Test results taken from PubChem BioAssay (NCI).
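Interpolation was linear, between the two tested concentrations surrounding the appropriate level; five concentrations were tested over 48 hours in 96-well plates. GI50 = concentration required for 50% inhibition of growth. TGI denotes the concentration required for complete inhibition of growth.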

Assays:
Assay in all cases: NCI-60 cell line screen, 48 h
[1] = tested on: TK-10 renal
[2] = tested on: A498 renal
[3] = tested on: HCT-116 colon
[4] = tested on: SNB-19 CNS
[5] = tested on: SK-MEL-2 melanoma
[6] = tested on: K-562 leukemia
[7] = tested on: KM12 colon
[8] = tested on: ACHN renal
[9] = tested on: HOP-62 NSCLC
[10] = tested on: SNB-75 CNS
[11] = tested on: CAKI-1 renal
[12] = tested on: MDA-MB-231 breast
[13] = tested on: SF-295 CNS
[14] = tested on: NCI/ADR-RES ovarian
[15] = tested on: U251 CNS
[16] = tested on: HL-60(TB) leukemia
[17] = tested on: OVCAR-4 ovarian
[18] = tested on: NCI-H226 lung
[19] = tested on: HT29 colon
[20] = tested on: HCT-15 colon
[21] = tested on: MCF7 breast
[22] = tested on: SK-MEL-5 melanoma
[23] = tested on: DU-145 prostate
[24] = tested on: T-47D breast
[25] = tested on: MDA-MB-435
[26] = tested on: IGROV1 ovarian
[27] = tested on: HCC-2998 colon
[28] = tested on: A549 NSCLC
[29] = tested on: UO-31 renal
[30] = tested on: HOP-92 NSCLC
[31] = tested on: PC-3 prostate
[32] = tested on: M14 melanoma
[33] = tested on: SK-MEL-28 melanoma
[34] = tested on: NCI-H23 lung
[35] = tested on: NCI-H460 lung
[36] = tested on: LOX IMVI melanoma
[37] = tested on: EKVX NSCLC
[38] = tested on: SW-620 colon
[39] = tested on: BT-549 breast
[40] = tested on: OVCAR-8 ovarian
[41] = tested on: SK-OV-3 ovarian
[42] = tested on: MALME-3M melanoma
[43] = tested on: 786-0 renal
[44] = tested on: RPMI-8226 leukemia
[45] = tested on: CCRF-CEM leukemia
[46] = tested on: OVCAR-5 ovarian
[47] = tested on: UACC-257 melanoma
[48] = tested on: RXF 393 renal
[49] = tested on: COLO 205 colon
[50] = tested on: HS 578T breast
[51] = tested on: NCI-H522 lung
[52] = tested on: SF-268 CNS
[53] = tested on: SN12C renal
[54] = tested on: SF-539 CNS
[55] = tested on: MOLT-4 leukemia
[56] = tested on: UACC-62 melanoma
[57] = tested on: SR leukemia

Compound: CCCCCc1ccc(S(=O)(=O)N(C(C)=O)c2cccc(-c3csc(N(CCN4CCN(C)CC4)C(C)=O)n3)c2)cc1
- GI50 [1]: 4.08 µM
- TGI [1]: 7.57 µM
- GI50 [2]: 1.24 µM
- TGI [2]: 4.75 µM
- GI50 [3]: 0.929 µM
- TGI [3]: 3.41 µM
- GI50 [4]: 3.63 µM
- TGI [4]: 7.14 µM
- GI50 [5]: 3.99 µM
- TGI [5]: 7.44 µM
- GI50 [6]: 0.751 µM
- TGI [6]: 3.01 µM
- GI50 [7]: 4.04 µM
- TGI [7]: 8.04 µM
- GI50 [8]: 3.52 µM
- TGI [8]: 6.77 µM
- GI50 [9]: 3.58 µM
- TGI [9]: 7.3 µM
- GI50 [10]: 1.06 µM
- TGI [10]: 5.21 µM
- GI50 [11]: 2.93 µM
- TGI [11]: 6.2 µM
- GI50 [12]: 2.64 µM
- TGI [12]: 5.96 µM
- GI50 [13]: 3.63 µM
- TGI [13]: 7.15 µM
- GI50 [14]: 3.5 µM
- TGI [14]: 7.55 µM
- GI50 [15]: 2.75 µM
- TGI [15]: 5.81 µM
- GI50 [16]: 0.991 µM
- TGI [16]: 4.51 µM
- GI50 [17]: 3.49 µM
- TGI [17]: 7.42 µM
- GI50 [18]: 4.09 µM
- TGI [18]: 8.82 µM
- GI50 [19]: 0.856 µM
- TGI [19]: 2.71 µM
- GI50 [20]: 0.837 µM
- TGI [20]: 2.98 µM
- GI50 [21]: 0.83 µM
- TGI [21]: 3.3 µM
- GI50 [22]: 3.31 µM
- TGI [22]: 6.57 µM
- GI50 [23]: 3.48 µM
- TGI [23]: 6.81 µM
- GI50 [24]: 2.79 µM
- TGI [24]: 6.73 µM
- GI50 [25]: 0.987 µM
- TGI [25]: 3.74 µM
- GI50 [26]: 2.96 µM
- TGI [26]: 6.61 µM
- GI50 [27]: 1.15 µM
- TGI [27]: 4.07 µM
- GI50 [28]: 3.03 µM
- TGI [28]: 6.27 µM
- GI50 [29]: 2.86 µM
- TGI [29]: 5.96 µM
- GI50 [30]: 1.06 µM
- TGI [30]: 4.62 µM
- GI50 [31]: 3.32 µM
- TGI [31]: 7.06 µM
- GI50 [32]: 2.23 µM
- TGI [32]: 5.64 µM
- GI50 [33]: 3.07 µM
- TGI [33]: 6.22 µM
- GI50 [34]: 3.8 µM
- TGI [34]: 7.39 µM
- GI50 [35]: 1.4 µM
- TGI [35]: 4.61 µM
- GI50 [36]: 0.085 µM
- TGI [36]: 1.26 µM
- GI50 [37]: 3.79 µM
- TGI [37]: 7.27 µM
- GI50 [38]: 0.824 µM
- TGI [38]: 3.19 µM
- GI50 [39]: 2.94 µM
- TGI [39]: 6.04 µM
- GI50 [40]: 3.51 µM
- TGI [40]: 6.95 µM
- GI50 [41]: 4.04 µM
- TGI [41]: 7.64 µM
- GI50 [42]: 1.58 µM
- TGI [42]: 5.04 µM
- GI50 [43]: 0.642 µM
- TGI [43]: 2 µM
- GI50 [44]: 2.5 µM
- TGI [44]: 7.53 µM
- GI50 [45]: 1.95 µM
- TGI [45]: 7.49 µM
- GI50 [46]: 3.5 µM
- TGI [46]: 6.81 µM
- GI50 [47]: 4.37 µM
- TGI [47]: 8.1 µM
- GI50 [48]: 1.19 µM
- TGI [48]: 4.35 µM
- GI50 [49]: 0.815 µM
- TGI [49]: 2.96 µM
- GI50 [50]: 3.3 µM
- TGI [50]: 10.8 µM
- GI50 [51]: 3.91 µM
- TGI [51]: 7.55 µM
- GI50 [52]: 3.56 µM
- TGI [52]: 7.6 µM
- GI50 [53]: 3.4 µM
- TGI [53]: 6.75 µM
- GI50 [54]: 3.64 µM
- TGI [54]: 7.01 µM
- GI50 [55]: 1.22 µM
- TGI [55]: 5.26 µM
- GI50 [56]: 4.21 µM
- TGI [56]: 7.79 µM

Compound: CCCCCc1ccc(S(=O)(=O)Nc2cc(-c3csc(NC(=O)CN4CCN(C)CC4)n3)ccc2OC)cc1
- GI50 [1]: 1.41 µM
- TGI [1]: 5.1 µM
- GI50 [2]: 5.41 µM
- TGI [2]: 12.2 µM
- GI50 [3]: 0.876 µM
- TGI [3]: 1.65 µM
- GI50 [4]: 1.26 µM
- TGI [4]: 3.74 µM
- GI50 [5]: 0.867 µM
- TGI [5]: 1.65 µM
- GI50 [7]: 1.21 µM
- TGI [7]: 2.92 µM
- GI50 [8]: 0.957 µM
- TGI [8]: 1.98 µM
- GI50 [9]: 0.915 µM
- TGI [9]: 1.86 µM
- GI50 [10]: 1.07 µM
- TGI [10]: 4.47 µM
- GI50 [11]: 0.869 µM
- TGI [11]: 1.97 µM
- GI50 [12]: 0.992 µM
- TGI [12]: 2.34 µM
- GI50 [13]: 0.993 µM
- TGI [13]: 2.01 µM
- GI50 [14]: 2.37 µM
- TGI [14]: 9.89 µM
- GI50 [15]: 0.901 µM
- TGI [15]: 1.91 µM
- GI50 [16]: 1.07 µM
- TGI [16]: 2.34 µM
- GI50 [17]: 1.31 µM
- TGI [17]: 4.1 µM
- GI50 [18]: 6.89 µM
- TGI [18]: 17.6 µM
- GI50 [19]: 0.871 µM
- TGI [19]: 1.68 µM
- GI50 [20]: 0.976 µM
- TGI [20]: 2.09 µM
- GI50 [21]: 0.937 µM
- TGI [21]: 1.95 µM
- GI50 [22]: 0.892 µM
- TGI [22]: 1.61 µM
- GI50 [23]: 1.62 µM
- TGI [23]: 4.96 µM
- GI50 [24]: 0.921 µM
- TGI [24]: 2.06 µM
- GI50 [25]: 0.878 µM
- TGI [25]: 1.64 µM
- GI50 [26]: 1.19 µM
- TGI [26]: 3.51 µM
- GI50 [27]: 0.986 µM
- TGI [27]: 1.97 µM
- GI50 [28]: 1.43 µM
- TGI [28]: 5.48 µM
- GI50 [29]: 0.736 µM
- TGI [29]: 1.61 µM
- GI50 [30]: 0.857 µM
- TGI [30]: 1.96 µM
- GI50 [31]: 1.8 µM
- TGI [31]: 7.42 µM
- GI50 [32]: 0.887 µM
- TGI [32]: 1.7 µM
- GI50 [33]: 0.873 µM
- TGI [33]: 1.62 µM
- GI50 [34]: 1.84 µM
- TGI [34]: 7.12 µM
- GI50 [35]: 0.924 µM
- TGI [35]: 1.77 µM
- GI50 [57]: 0.993 µM
- TGI [57]: 2.62 µM
- GI50 [36]: 0.866 µM
- TGI [36]: 1.63 µM
- GI50 [37]: 1.92 µM
- TGI [37]: 9.16 µM
- GI50 [38]: 0.867 µM
- TGI [38]: 1.69 µM
- GI50 [39]: 2.52 µM
- TGI [39]: 11.2 µM
- GI50 [40]: 1.28 µM
- TGI [40]: 3.65 µM
- GI50 [41]: 5.14 µM
- TGI [41]: 13 µM
- GI50 [42]: 0.788 µM
- TGI [42]: 1.52 µM
- GI50 [43]: 0.884 µM
- TGI [43]: 1.64 µM
- GI50 [44]: 0.925 µM
- TGI [44]: 2.16 µM
- GI50 [45]: 1.24 µM
- TGI [45]: 3.92 µM
- GI50 [46]: 1.54 µM
- TGI [46]: 5.35 µM
- GI50 [47]: 0.85 µM
- TGI [47]: 1.64 µM
- GI50 [48]: 0.717 µM
- TGI [48]: 1.5 µM
- GI50 [49]: 0.821 µM
- TGI [49]: 1.68 µM
- GI50 [50]: 0.919 µM
- TGI [50]: 2.19 µM
- GI50 [51]: 0.889 µM
- TGI [51]: 1.7 µM
- GI50 [52]: 0.898 µM
- TGI [52]: 1.92 µM
- GI50 [53]: 1.14 µM
- TGI [53]: 2.77 µM
- GI50 [54]: 0.859 µM
- TGI [54]: 1.61 µM
- GI50 [55]: 1.49 µM
- TGI [55]: 4.54 µM
- GI50 [56]: 0.969 µM
- TGI [56]: 1.98 µM
